≈ marks a conversion by molar mass, not a printed value. Entries after “also recorded” stand apart in the source; their conditions may differ.
Legend:
5-HT2A [1] = biological target: T1, 5-HT2A (Homo sapiens, UniProt P28223); assay: Calcium flux agonist assay, 293T cells; assay type: cell-based; set-up: expressed in transfected cells; host or cells: Human Embryonic Kidney (293T) cells, transient; details: for Emax: HEK-293T, calcium flux, 5-HT2A, normalized to maximum 5-HT response
5-HT2B [2] = biological target: T2, 5-HT2B (Homo sapiens, UniProt P41595); assay: IP-One HTRF IP-1 accumulation functional assay, 5-HT2B/HEK293; assay type: cell-based; set-up: host or cells: HEK293
Procedure: Methods (5-HT2B IP-One Functional Activity Assays): Intracellular accumulation of IP-1 was measured using an IP-One HTRF) assay kit (Cat. #62IPAPEJ, Cisbio) at WuXi AppTec Co. Ltd. (Hong Kong) Discovery Biology Unit according to their standard protocols. Briefly, 5-HT2B/HEK293 were plated in a 384-well plate and incubated at 37° C. and 5% CO2 overnight. The reference compounds and screening compounds were 3.16-fold serially diluted in 100% DMSO for 10 points using Bravo. 70 nL of compounds were added to the cell plate using Echo555. Incubated for 60 minutes at 37° C. Added 3 μL of IP-1 d2 Reagent working solution and 3 μL of IP-1 Tb Cryptate Antibody working solution to all wells. The plates were incubated for 1 hour at room temperature and read on for fluorescence at 620 nm and 665 nm on an EnVision Multimode Plate Reader (PerkinElmer). The ratio of the acceptor and donor emission signals (665/620) were calculated for each individual well and substituted into the standard curve to obtain the log concentration of IP level. After converting to the antilog base IP-1, the average background control signal was subtracted from each well and values were normalized to the maximal response of 5-HT at 3 μM (100%). % MAX was calculated by taking the average normalized maximal response at the highest concentration tested. Data were analyzed using the four-parameter nonlinear regression curve-fitting function in GraphPad Prism 5 (GraphPad Software, San Diego, CA) to generate potency (EC50) values. Parameter constraint “Top=100” was used in the analysis of 5-HT2B IP-1. Represented plots show normalized IP-1 values versus compound concentrations; the corresponding numerical data are parameter estimates for the concentration-response curve using the 4-parameter nonlinear regression curve-fitting function in GraphPad Prism 10. “Top=100” parameter constraint was not enabled for the represented plot analysis.

5-HT2B [3] = biological target: T2, 5-HT2B; assay: Calcium flux agonist assay, 293T cells; assay type: cell-based; set-up: expressed in transfected cells; host or cells: Human Embryonic Kidney (293T) cells, transient; details: for Emax: HEK-293T, 5-HT2B, normalized to maximum 5-HT response; for Emax / 5-HT2B receptor activation: calcium flux; for 5-HT2B receptor activation: in words
5-HT2A [4] = biological target: T1, 5-HT2A; assay: IP-One HTRF IP-1 accumulation functional assay, 5-HT2A-expressing HEK293; assay type: cell-based; set-up: host or cells: HEK293
Procedure: Methods (5-HT2A and 5-HT2C IP-One Functional Activity Assays): Intracellular accumulation of IP-1 was measured using an IP-One HTRF assay kit (Cat. #62IPAPEJ, Cisbio) at WuXi AppTec Co. Ltd. (Hong Kong) Discovery Biology Unit according to their standard protocols. Briefly, the reference compounds and screening compounds were 3.16-fold serially diluted in 100% DMSO for 10 points using Bravo. 70 nL of compounds were added to the assay plate using Echo555. Added 14 μL/7500 cells/well of 5-HT2A-expressing HEK293 or 5-HT2C-expressing HEK293 to the assay plate and incubate for 60 min at 37° C. Added 3 μL of IP-1 d2 Reagent working solution and 3 μL of IP-1 Tb Cryptate Antibody working solution to all wells. The plates were incubated for 1 hour at room temperature and read for fluorescence at 620 nm and 665 nm on an EnVision Multimode Plate Reader (PerkinElmer). The ratio of the acceptor and donor emission signals (665/620) were calculated for each individual well and substituted into the standard curve to obtain the log concentration of IP level. After converting to the antilog base IP-1, the average background control signal was subtracted from each well and values were normalized to the maximal response of 5-HT at 3 μM (100%). % MAX was calculated by taking the average normalized maximal response for each compound at the highest concentration tested. The data were analyzed using the four-parameter nonlinear regression curve-fitting function in GraphPad Prism 5 (GraphPad Software, San Diego, CA) to generate potency (EC50) values. The represented plots show normalized IP-1 values versus compound concentrations; the corresponding numerical data are parameter estimates for the concentration-response curve using the four-parameter nonlinear regression curve-fitting function in GraphPad Prism 10.

[5] = Aqueous solubility by sequential dilution in water, microscopic inspection; details: water, thermodynamic from solid
male C57BL/6J mice [6] = assay: Motor activity / distance traveled measured in parallel with HTR; assay type: in vivo, mouse; details: i.p.; for motor activity, in words: magnetometer activity
male C57BL/6J mice [7] = assay: Mouse head-twitch response (HTR) assay, magnetometer; assay type: in vivo; details: for HTR (head twitch response), in words: i.p., doses up to 30 mpk
[8] = Photoabsorption 290-700 nm, molar extinction coefficient (photoliability); assay type: physicochemical; details: wavelength of maximal absorption between 290 nm and 700 nm
5-HT2A (h) = biological target: T3, 5-HT2A (h) (Homo sapiens, UniProt P28223); assay: Radioligand binding 5-HT2A (h) (agonist radioligand), [^125I](±)DOI, HEK-293 cells; details: 5-HT2A, Hill coefficient
T3 construct: host or cells: HEK-293 cells

5-HT2C (h) = biological target: T4, 5-HT2C (h) (Homo sapiens, UniProt P28335); assay: Radioligand binding 5-HT2C (h) (agonist radioligand), [^125I](±)DOI, HEK-293 cells
T4 construct: host or cells: HEK-293 cells
T4 sequence (P28335 33-458): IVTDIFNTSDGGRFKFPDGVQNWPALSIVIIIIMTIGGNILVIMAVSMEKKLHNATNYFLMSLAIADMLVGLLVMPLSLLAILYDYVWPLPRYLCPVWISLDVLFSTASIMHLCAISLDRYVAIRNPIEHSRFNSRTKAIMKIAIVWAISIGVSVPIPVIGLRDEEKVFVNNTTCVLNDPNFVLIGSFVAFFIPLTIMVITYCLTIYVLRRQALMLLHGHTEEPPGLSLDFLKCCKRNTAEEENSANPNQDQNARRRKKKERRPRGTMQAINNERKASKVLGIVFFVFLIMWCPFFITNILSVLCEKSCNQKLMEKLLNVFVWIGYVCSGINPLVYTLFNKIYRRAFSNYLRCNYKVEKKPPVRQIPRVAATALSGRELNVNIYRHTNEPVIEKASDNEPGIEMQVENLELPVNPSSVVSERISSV

5-HT2B (h) = biological target: T5, 5-HT2B (h) (Homo sapiens, UniProt P41595); assay: Radioligand binding 5-HT2B (h) (agonist radioligand), [^125I](±)DOI, CHO cells
T5 construct: host or cells: CHO cells
T5 sequence (P41595 whole entry): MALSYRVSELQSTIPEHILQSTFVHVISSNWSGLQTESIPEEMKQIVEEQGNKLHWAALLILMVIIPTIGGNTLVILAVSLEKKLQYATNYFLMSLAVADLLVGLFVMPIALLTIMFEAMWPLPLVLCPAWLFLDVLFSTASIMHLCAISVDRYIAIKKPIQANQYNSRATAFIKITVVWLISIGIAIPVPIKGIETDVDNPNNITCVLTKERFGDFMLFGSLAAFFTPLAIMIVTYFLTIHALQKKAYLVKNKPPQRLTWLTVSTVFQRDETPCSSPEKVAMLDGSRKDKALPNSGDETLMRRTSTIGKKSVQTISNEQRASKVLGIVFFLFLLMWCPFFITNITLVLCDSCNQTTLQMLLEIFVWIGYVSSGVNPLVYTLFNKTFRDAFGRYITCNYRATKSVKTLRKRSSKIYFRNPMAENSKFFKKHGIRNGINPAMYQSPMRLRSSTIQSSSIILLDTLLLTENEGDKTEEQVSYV

T1 sequence (P28223 whole entry, looked up): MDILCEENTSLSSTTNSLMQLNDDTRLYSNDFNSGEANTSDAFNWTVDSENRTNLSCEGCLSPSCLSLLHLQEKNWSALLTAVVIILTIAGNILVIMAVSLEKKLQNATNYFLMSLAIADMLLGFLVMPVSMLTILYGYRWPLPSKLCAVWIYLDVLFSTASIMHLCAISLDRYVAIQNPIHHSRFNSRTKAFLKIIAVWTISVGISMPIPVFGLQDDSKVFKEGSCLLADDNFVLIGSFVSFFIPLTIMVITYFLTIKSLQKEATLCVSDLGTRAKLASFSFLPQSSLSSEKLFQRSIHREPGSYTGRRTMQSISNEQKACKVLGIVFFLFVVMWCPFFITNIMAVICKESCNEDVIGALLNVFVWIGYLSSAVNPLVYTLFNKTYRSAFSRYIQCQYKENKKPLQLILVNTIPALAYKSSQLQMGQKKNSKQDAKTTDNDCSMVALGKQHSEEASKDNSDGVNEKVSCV
T2 sequence (P41595 whole entry): as the sequence (P41595 whole entry) above
T3 sequence (P28223 whole entry, looked up): as the sequence (P28223 whole entry, looked up) above

| SMILES | EC50 (5-HT2A [1]) [nM] | Emax (5-HT2A [1]) [%] | EC50 (5-HT2B [2]) [nM] | EC50 (5-HT2B [3]) [nM] | Emax (5-HT2B [3]) [%] | 5-HT2B receptor activation (5-HT2B [3]) | EC50 (5-HT2A [4]) [nM] | solubility [5] [mM] | motor activity ID50 (male C57BL/6J mice [6]) [mpk] | motor activity, in words (male C57BL/6J mice [6]) | ED50 (male C57BL/6J mice [7]; Mus musculus, ip, non-linear regression) [mg/kg] | HTR (head twitch response), in words (male C57BL/6J mice [7]) | MEC [8] [L/mol/cm] | nH (5-HT2A (h)) | Ki (5-HT2C (h)) [nM] | nH (5-HT2C (h); 5-HT2C, Hill coefficient) | IC50 (5-HT2B (h)) [nM] | Ki (5-HT2B (h)) [nM] | nH (5-HT2B (h); 5-HT2B, Hill coefficient) |
| --- | --- | --- | --- | --- | --- | --- | --- | --- | --- | --- | --- | --- | --- | --- | --- | --- | --- | --- | --- |
| COc1cc(CCN)c(OC)cc1Br [Compound 2C-B, reference compound] | 0.62 | 105 | 232 | 9.98 | 92.7 | near maximal activation | 20.9 | – | – | – | – | – | – | – | – | – | – | – | – |
| COc1cc(CC(C)C)c(OC)cc1CCN [Compound 2C-iBu, reference compound] | 21.9 | 92.6 | – | 22.3 | 89.1 | near maximal activation | – | 31.2 (≈ 7400 µg/mL) | 2 | modest but statistically significant effect on motor suppression at the doses of 3 and 10 mpk | 0.42 | produced clear HTR time-course and inverted U-shape dose-response patterns; also recorded: induced HTR activity | – | – | – | – | – | – | – |
| COc1cc(CC(C)C)c(CO)cc1CCN [Compound 2CiBu-5HM, [5-(2-Aminoethyl)-2-isobutyl-4-methoxy-phenyl]methanol] | – | – | 1120 | – | – | – | 466 | 44.4 (≈ 10500 µg/mL) | – | – | – | – | 340.7 | – | – | – | – | – | – |
| COc1cc(C[C@@H](C)N)c(OC)cc1I [R-DOI, (−)-R-2,5-dimethoxy-4-iodo-amphetamine, reference compound] | – | – | – | – | – | – | – | – | – | increase in motor activity | – | induced HTR that gradually increased over time | – | 0.7 | 0.4 | 1.0 | 2.3 | 1.2 | 0.7 |
